Test results reported in ChEMBL document CHEMBL1201862, “PubChem BioAssay data set” (2004).
Active and inactive are the calls of the source.

Legend:
[1] = biological target: T1, Phospholipase D1 (Homo sapiens, UniProt Q13393); assay: PLD1 inhibitor potency in cells, dose response (AID 602151); assay type: functional;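 further: cellular PLD1 assay in Calu-1 cells stimulated with PMA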
T1 sequence (Q13393 whole entry): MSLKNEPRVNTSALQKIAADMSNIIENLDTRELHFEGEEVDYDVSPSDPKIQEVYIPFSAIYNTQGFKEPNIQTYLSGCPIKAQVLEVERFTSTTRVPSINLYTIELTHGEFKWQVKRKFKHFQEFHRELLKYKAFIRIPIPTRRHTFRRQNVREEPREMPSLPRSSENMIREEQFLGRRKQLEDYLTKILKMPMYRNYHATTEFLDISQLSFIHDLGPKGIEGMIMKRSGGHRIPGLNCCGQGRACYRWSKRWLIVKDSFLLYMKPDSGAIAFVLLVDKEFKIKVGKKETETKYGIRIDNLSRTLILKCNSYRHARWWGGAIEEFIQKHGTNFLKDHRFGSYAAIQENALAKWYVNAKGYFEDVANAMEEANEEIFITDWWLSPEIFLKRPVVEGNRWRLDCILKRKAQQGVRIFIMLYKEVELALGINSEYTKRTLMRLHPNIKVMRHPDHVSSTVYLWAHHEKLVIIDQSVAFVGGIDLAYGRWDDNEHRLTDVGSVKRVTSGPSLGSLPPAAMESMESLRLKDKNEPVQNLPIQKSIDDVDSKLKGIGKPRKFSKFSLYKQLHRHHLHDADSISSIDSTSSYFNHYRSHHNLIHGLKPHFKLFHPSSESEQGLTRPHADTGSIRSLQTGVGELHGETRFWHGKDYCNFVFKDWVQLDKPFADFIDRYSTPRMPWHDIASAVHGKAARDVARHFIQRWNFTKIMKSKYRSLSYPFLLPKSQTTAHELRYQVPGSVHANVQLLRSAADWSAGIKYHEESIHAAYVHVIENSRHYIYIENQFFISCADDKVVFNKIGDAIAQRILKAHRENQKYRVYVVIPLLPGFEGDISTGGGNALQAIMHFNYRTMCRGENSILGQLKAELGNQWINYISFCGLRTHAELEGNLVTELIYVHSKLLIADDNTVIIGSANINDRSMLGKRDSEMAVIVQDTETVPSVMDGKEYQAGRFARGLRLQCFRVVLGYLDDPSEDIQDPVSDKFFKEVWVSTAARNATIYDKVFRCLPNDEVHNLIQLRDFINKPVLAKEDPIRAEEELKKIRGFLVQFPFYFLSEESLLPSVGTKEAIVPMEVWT

[2] = biological target: Phospholipase D2 (Homo sapiens, UniProt O14939); assay: PLD2 inhibitor potency in cells, dose response (AID 602147); assay type: functional;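 further: cellular assay in HEK293 cells overexpressing GFP-tagged PLD2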
[3] = biological target: T2, Protein RecA (Mycobacterium tuberculosis, UniProt P9WHJ3); assay: Fluorescence Cell-Free Homogeneous Dose Retest to Identify Inhibitors of RecA-Intein Splicing Activity. [Related pubchem assays (depositor defined):AID2097, AID2223, AID489010, AID492950]; assay type: functional
T2 sequence (P9WHJ3 whole entry): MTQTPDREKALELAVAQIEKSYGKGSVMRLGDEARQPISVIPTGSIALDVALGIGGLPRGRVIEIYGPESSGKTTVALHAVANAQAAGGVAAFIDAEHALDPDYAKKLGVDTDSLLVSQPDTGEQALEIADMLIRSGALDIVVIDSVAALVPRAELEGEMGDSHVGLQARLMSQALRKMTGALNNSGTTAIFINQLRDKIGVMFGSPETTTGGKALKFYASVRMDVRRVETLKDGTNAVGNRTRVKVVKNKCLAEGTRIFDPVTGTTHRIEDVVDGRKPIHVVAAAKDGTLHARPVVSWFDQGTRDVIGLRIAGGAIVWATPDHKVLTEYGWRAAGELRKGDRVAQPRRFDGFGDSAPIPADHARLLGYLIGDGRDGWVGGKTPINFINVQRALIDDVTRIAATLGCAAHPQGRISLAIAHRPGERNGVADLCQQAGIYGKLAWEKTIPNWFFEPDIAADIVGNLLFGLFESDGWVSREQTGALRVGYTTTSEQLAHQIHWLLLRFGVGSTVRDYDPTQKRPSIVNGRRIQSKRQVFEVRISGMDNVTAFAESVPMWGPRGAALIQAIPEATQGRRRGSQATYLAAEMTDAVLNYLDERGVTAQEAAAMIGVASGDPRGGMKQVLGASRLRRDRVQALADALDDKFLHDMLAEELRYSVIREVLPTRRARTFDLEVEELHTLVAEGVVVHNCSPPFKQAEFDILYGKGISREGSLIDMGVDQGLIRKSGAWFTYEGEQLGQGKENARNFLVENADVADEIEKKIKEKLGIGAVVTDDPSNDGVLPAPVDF

[4] = biological target: T3, Replicative DNA helicase DnaB (Mycobacterium tuberculosis, UniProt P9WMR3); assay: DnaB intein splicing inhibitors, dose response, biochemical, cell-free fluorescence (AID 449749); assay type: functional
T3 sequence (P9WMR3 whole entry): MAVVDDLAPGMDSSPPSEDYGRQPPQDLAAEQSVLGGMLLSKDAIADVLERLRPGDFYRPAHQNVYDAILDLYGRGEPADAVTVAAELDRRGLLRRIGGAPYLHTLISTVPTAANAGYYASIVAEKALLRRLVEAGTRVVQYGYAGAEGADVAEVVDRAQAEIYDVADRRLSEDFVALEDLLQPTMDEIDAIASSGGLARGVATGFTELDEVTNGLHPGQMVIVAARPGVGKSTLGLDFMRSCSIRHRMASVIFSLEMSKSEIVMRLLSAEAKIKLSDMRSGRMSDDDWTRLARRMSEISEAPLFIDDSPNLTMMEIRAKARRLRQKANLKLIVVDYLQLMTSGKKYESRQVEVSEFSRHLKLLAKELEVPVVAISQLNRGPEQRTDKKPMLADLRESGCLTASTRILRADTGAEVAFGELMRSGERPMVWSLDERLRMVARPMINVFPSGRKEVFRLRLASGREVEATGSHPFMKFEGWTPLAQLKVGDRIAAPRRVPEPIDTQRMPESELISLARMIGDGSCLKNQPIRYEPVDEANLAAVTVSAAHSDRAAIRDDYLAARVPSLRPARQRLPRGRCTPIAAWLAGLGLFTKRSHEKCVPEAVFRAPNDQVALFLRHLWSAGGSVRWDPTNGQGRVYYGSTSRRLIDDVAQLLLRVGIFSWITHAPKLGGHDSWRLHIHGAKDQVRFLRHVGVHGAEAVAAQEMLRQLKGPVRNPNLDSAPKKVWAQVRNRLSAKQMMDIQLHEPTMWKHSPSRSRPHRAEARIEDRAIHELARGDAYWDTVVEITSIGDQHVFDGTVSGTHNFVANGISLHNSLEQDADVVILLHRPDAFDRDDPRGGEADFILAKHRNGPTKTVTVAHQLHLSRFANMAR

[5] = biological target: Paired box protein Pax-8 (Homo sapiens, UniProt Q06710); assay: inhibitors of PAX8-driven TPO luciferase reporter, dose response, RMG-I cells, cherry-pick (AID 687027); assay type: functional, cell-based;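 further: luciferase reporter driven by Pax8 target thyroperoxidase promoter measured by SteadyGlo luminescence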
[6] = A Cell Based Secondary Assay To Explore Cytotoxicity of Compounds that Sensitize Mycobacterium Tuberculosis to Beta-Lactam Antibiotics.; assay type: functional
[7] = non-specific cell cytotoxicity, dose response, cytotoxicity control for PAX8 inhibitor project, plate reader, dry powder samples (AID 743021); assay type: functional, cell-based
[8] = growth suppression of PTEN-null colon cells, dose response, cell-based, HCT116 PTEN knockout (AID 1047); assay type: functional;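 further: HCT116 colon tumor cells with PTEN knocked out; cells exposed to compound for 60 hours before readout; potency for loss of cell viability measured by luminescence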
[9] = biological target: T4, High affinity choline transporter 1 (Homo sapiens, UniProt Q9GZV3); assay: CHT activators, dose response, cell-based, 10-point CRC, membrane potential dye (AID 602376); assay type: functional
T4 sequence (Q9GZV3 whole entry): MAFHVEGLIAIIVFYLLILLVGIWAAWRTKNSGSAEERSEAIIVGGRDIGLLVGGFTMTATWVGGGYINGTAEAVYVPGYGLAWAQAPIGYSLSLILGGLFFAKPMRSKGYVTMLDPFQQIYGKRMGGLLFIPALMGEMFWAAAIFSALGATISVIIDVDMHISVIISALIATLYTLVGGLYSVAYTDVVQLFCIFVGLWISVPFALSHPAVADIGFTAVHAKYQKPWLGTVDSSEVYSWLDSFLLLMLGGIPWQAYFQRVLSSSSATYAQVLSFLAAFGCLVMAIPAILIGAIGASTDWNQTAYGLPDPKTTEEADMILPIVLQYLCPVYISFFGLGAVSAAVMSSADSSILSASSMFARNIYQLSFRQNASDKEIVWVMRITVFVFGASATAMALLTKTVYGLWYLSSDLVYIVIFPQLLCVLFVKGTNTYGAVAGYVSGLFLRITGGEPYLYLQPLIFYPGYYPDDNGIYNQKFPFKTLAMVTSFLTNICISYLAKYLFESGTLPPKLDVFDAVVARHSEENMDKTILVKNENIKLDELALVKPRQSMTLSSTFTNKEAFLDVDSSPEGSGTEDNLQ

[10] = growth suppression of beta-catenin-knockout colon cells, dose response, cell-based, HCT116, human colon tumor (AID 1045); assay type: functional;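 further: HCT116 colon tumor cells with beta catenin knocked out; cells exposed to compound for 60 hours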
[11] = Intein inhibitors as potential Tuberculosis drugs, a cytotoxicity screen. [Related pubchem assays (depositor defined):AID2221, AID2223, AID434968, AID435010, AID449749, AID449750, AID489010]; assay type: functional
[12] = cytotoxicity toward NIH3T3 fibroblasts, dose response, counter-screen, cell-based, ATP luminescence, mouse fibroblasts (AID 2010); assay type: functional;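 further: cells exposed to compound for about 90 hours before reading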
[13] = test system: Jurkat; assay: antigen receptor-induced NF-kB inhibitors, dose response, Jurkat, luciferase reporter, luminescence, B- and T-cell (AID 489004); assay type: functional, cell-based; settings: Homo sapiens;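 further: NF-kB luciferase reporter Jurkat cells stimulated with PMA plus ionomycin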
[14] = inhibitors of intracellular T. cruzi replication, confirmation, NIH3T3 host cells, beta-gal luminescence (AID 2044); assay type: functional, cell-based;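 further: intracellular parasites grown in NIH/3T3 mouse fibroblasts as host cells; luminescent beta-galactosidase reporter signal from transgenic T. cruzi replicating inside host cells; inhibitors lower the luminescence signal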
[15] = test system: INS1; assay: beta cell apoptosis inhibitors, cytokine rescue, dose response, luminescence, retest (AID 449756); assay type: functional, cell-based; settings: Rattus norvegicus;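 further: cell death triggered by IL-1 beta plus TNF-alpha plus IFN-gamma mixture; protective hits raise ATP signal compared with cytokine alone wells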
[16] = cytotoxicity in HEK-293T NF-kB-Luc cells, dose response, cytotoxicity control for B/T-cell NF-kB inhibitor project, cell-based, uHTS hits (AID 489019); assay type: functional;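 further: IC50 reflects cytotoxicity as loss of cell viability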

Chain of Paired box protein Pax-8 (Q06710 whole entry): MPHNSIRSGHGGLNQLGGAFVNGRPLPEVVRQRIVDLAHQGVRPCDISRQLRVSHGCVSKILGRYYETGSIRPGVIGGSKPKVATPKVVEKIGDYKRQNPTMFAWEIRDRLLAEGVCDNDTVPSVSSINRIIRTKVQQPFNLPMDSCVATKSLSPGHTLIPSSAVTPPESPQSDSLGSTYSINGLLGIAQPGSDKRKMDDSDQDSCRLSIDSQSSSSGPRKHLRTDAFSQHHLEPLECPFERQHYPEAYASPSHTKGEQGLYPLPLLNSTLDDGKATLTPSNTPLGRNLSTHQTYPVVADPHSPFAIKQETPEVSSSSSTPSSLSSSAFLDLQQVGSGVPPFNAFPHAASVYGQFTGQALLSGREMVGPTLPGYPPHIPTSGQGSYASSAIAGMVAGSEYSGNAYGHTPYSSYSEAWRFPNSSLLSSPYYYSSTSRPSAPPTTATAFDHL
Chain of Phospholipase D2 (O14939 whole entry): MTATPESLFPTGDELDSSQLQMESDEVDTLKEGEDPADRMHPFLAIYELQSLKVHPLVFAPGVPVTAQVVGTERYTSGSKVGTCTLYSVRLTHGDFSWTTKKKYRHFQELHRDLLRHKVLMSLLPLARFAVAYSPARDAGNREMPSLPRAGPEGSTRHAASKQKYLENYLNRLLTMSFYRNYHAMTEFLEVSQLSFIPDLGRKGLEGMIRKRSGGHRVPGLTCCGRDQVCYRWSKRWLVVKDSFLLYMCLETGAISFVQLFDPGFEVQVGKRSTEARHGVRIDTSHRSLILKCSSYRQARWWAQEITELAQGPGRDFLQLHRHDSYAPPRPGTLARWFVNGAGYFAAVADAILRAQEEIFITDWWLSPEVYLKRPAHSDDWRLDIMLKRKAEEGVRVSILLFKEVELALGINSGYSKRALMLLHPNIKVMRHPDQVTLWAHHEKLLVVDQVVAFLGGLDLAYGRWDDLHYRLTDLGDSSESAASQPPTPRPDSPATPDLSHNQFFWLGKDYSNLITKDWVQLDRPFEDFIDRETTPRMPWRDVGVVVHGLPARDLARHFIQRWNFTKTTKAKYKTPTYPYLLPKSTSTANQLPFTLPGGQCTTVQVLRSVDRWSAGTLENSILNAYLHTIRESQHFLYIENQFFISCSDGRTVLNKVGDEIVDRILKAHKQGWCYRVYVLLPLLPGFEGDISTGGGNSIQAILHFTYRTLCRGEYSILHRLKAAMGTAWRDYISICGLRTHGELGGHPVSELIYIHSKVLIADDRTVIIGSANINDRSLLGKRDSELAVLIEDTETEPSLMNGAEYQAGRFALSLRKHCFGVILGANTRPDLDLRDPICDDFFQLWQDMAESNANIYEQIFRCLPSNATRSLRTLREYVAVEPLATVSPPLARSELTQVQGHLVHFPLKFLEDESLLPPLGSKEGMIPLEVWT

SMILES | IC50 [1] | IC50 [2] | EC50 [3] | AC50 [4] | AC50 [5] | CC50 [6] | AC50 [7] | EC50 [8] | EC50 [9] | EC50 [10] | CC50 [11] | EC50 [12] | IC50 [13] | EC50 [14] | AC50 [15] | IC50 [16]
O=C(NCCN1CCC(n2nnc3ccccc32)CC1)c1ccc2ccccc2c1 | 2.7 µM (active) | 1.75 µM (active) | – | – | – | – | – | – | – | – | – | – | – | – | – | –
Cc1nn(-c2ccccc2)c(Cl)c1CN(C(=O)CCl)c1cccc2ccccc12 | – | – | 0.571 µM (active) | 2.28 µM (active) | 9.95 µM (active) | 0.591 µM (active) | 11.3 µM (active) | 3.44 µM (active) | 16.7 µM (active) | 2.25 µM (active) | 1.81 µM (active) | – | – | – | – | –
COc1ccc(-c2cn3c([n+]2-c2ccc(C)cc2)CCCCC3)cc1 | – | – | – | – | – | – | – | – | 9.77 µM (active) | – | – | > 60 µM (not active) | > 80 µM (inactive) | 0.171 µM (active) | 0.348 µM (active) | > 80 µM (inactive)
